Consider 10 compounds from ChEMBL document CHEMBL1201862, “PubChem BioAssay data set” (2004).

Some test systems named below: BT-549; TK-10; SK-MEL-28; UACC-62; M14; HCT-116; KM12; SNB-75; NCI-H460; SNB-19; HCT-15; RXF 393; T47D; 786-0; A498; NCI-H226; OVCAR-4; UACC-257; HCC 2998; MOLT-4.
Common to all, as to experiment: inhibition of tumour cell growth, NCI panel, 48 h

Structures are written as SMILES.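 Method: 48-hour compound exposure of cells in 96-well plates, five concentrations, linear interpolation of endpoints. At the GI50, growth is halved.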 The source made the active and inactive calls. Rule as the data show it: active = GI50 up to about 1.1 µM and inactive = higher.

As to `O=c1cc(NCc2ccncc2)[nH]c(=O)[nH]1`, the GI50 with BT-549, in the test with TK-10, with SK-MEL-28, in the test on UACC-62, with M14 and in the test on HCT-116 was > 100 µM (inactive) in each case. The GI50 in the test with KM12 is > 100 µM (inactive); in the test with SNB-75, > 100 µM (inactive); in the test with NCI-H460, > 100 µM (inactive); in the test with SNB-19, > 100 µM (inactive); in the test with HCT-15, above 100 µM; in the test on RXF 393 it was > 100 µM (inactive). In addition, the GI50 with T47D, with 786-0, with A498, in the test with NCI-H226, in the test on OVCAR-4 and in the test on UACC-257 was > 100 µM (inactive) throughout. In addition, the GI50 in the test on HCC 2998 and with MOLT-4 was > 100 µM (inactive) throughout.
On to `COc1ccc(OC)c(NS(=O)(=O)c2ccc3nc(C)n(NS(=O)(=O)c4cc(OC)ccc4OC)c(=O)c3c2)c1`, for which the GI50 in the test on BT-549 is 70.1 µM (inactive); with TK-10 it was > 100 µM (inactive); with SK-MEL-28 it was > 100 µM (inactive); in the test with UACC-62, > 100 µM (inactive); in the test on M14, > 100 µM (inactive); with HCT-116 it was 21.7 µM (inactive). Moreover, the GI50 is 62.5 µM (inactive) with KM12; > 100 µM (inactive) in the test on SNB-75; 82.4 µM (inactive) with NCI-H460; > 100 µM (inactive) with SNB-19; above 100 µM with HCT-15; > 100 µM (inactive) with RXF 393. In addition, the GI50 in the test with T47D was > 100 µM (inactive); with 786-0 it was > 100 µM (inactive); in the test on A498 it was > 100 µM (inactive); in the test with NCI-H226 it was > 100 µM (inactive); in the test on OVCAR-4, 93.3 µM (inactive); in the test with UACC-257, > 100 µM (inactive). The GI50 is 38.6 µM (inactive) in the test on HCC 2998 and 15.2 µM (inactive) in the test with MOLT-4.
In the case of `CCOC(=N)n1c(=O)n(C2=NCCN2)c2ccccc21`, the GI50 with BT-549, in the test on TK-10, with SK-MEL-28, in the test with UACC-62, in the test with M14 and in the test with HCT-116 was > 100 µM (inactive) throughout. Also, the GI50 is > 100 µM (inactive) in the test on KM12; 31.2 µM (inactive) in the test with SNB-75; > 100 µM (inactive) in the test on NCI-H460; > 100 µM (inactive) in the test on SNB-19; above 100 µM with HCT-15; > 100 µM (inactive) in the test on RXF 393. Besides, the GI50 in the test on T47D, in the test on 786-0, in the test on A498, in the test with NCI-H226, in the test with OVCAR-4 and in the test with UACC-257 was > 100 µM (inactive) each time. Moreover, the GI50 in the test on HCC 2998 and with MOLT-4 was > 100 µM (inactive) throughout.
With `N#Cc1c(-c2ccccc2)c2c([nH]c1=O)-c1cc([N+](=O)[O-])ccc1CCC2`, the GI50 in the test with BT-549 was 17.4 µM (inactive); in the test with TK-10, 44.4 µM (inactive); with SK-MEL-28 it was 29.8 µM (inactive); in the test with UACC-62, 17.5 µM (inactive); with M14 it was 33.1 µM (inactive); with HCT-116 it was 30.3 µM (inactive). Besides, the GI50 in the test on KM12 is 32.9 µM (inactive); in the test on SNB-75, < 0.01 µM (active); in the test on NCI-H460, 30.4 µM (inactive); in the test with SNB-19, 36.7 µM (inactive); in the test on HCT-15, 20.9 µM; in the test with RXF 393, 12.1 µM (inactive). Also, the GI50 in the test with T47D is 19.3 µM (inactive); in the test with 786-0 it was 43.2 µM (inactive); in the test with A498, 19 µM (inactive); in the test on NCI-H226, 27.1 µM (inactive); in the test with OVCAR-4, 34 µM (inactive); with UACC-257 it was 31.1 µM (inactive). Also, the GI50 in the test on HCC 2998 was 20.7 µM (inactive); in the test on MOLT-4, 25 µM (inactive).
For `Cc1cccc(C(=O)O)c1CC1NCCC2c3ccccc3NC12` (stereo not given), the GI50 with BT-549, in the test with TK-10, in the test on SK-MEL-28, in the test with UACC-62, in the test on M14 and in the test with HCT-116 was > 100 µM (inactive) each time. Also, the GI50 in the test with KM12 is > 100 µM (inactive); in the test with SNB-75 it was > 100 µM (inactive); with NCI-H460 it was > 100 µM (inactive); in the test on SNB-19 it was > 100 µM (inactive); in the test with HCT-15 it was above 100 µM; with RXF 393, > 100 µM (inactive). Also, the GI50 in the test on T47D, in the test with 786-0, in the test on A498, in the test with NCI-H226, in the test with OVCAR-4 and in the test on UACC-257 was > 100 µM (inactive) each time. Moreover, the GI50 with HCC 2998 and with MOLT-4 was > 100 µM (inactive) each time.
In the case of `BC(=O)NC(CC(C)C)C(=O)NC1c2ccsc2C(=O)C1O.CN(C)C` (stereo not given), the GI50 with BT-549, in the test on TK-10, in the test on SK-MEL-28, in the test with UACC-62, in the test on M14 and in the test with HCT-116 was > 100 µM (inactive) each time. For the same compound, the GI50 in the test on KM12 was > 100 µM (inactive); in the test on SNB-75, > 100 µM (inactive); with NCI-H460 it was > 100 µM (inactive); in the test with SNB-19, > 100 µM (inactive); in the test with HCT-15, above 100 µM; with RXF 393 it was > 100 µM (inactive). Also, the GI50 in the test on T47D, in the test on 786-0, in the test on A498, in the test with NCI-H226, in the test with OVCAR-4 and with UACC-257 was > 100 µM (inactive) in each case. Moreover, the GI50 in the test with HCC 2998 and with MOLT-4 was > 100 µM (inactive) each time.
As for `CCCN1C(=O)CCC2=C1CCc1c2ccc(Cl)c1Cl`, the GI50 was 64.4 µM (inactive) with BT-549; 11.9 µM (inactive) in the test on TK-10; 92 µM (inactive) with SK-MEL-28; 0.492 µM (active) with UACC-62; 31.9 µM (inactive) with M14; 27.7 µM (inactive) with HCT-116. Besides, the GI50 is 38 µM (inactive) with KM12; 15.2 µM (inactive) in the test on SNB-75; 43.6 µM (inactive) with NCI-H460; 26.8 µM (inactive) with SNB-19; 50.6 µM in the test on HCT-15; 17.9 µM (inactive) in the test on RXF 393. For the same compound, the GI50 in the test on T47D was 36.7 µM (inactive); with 786-0 it was 31.9 µM (inactive); in the test on A498, 13 µM (inactive); with NCI-H226 it was 60.5 µM (inactive); in the test on OVCAR-4, 26.2 µM (inactive); in the test with UACC-257, 39.9 µM (inactive). The GI50 in the test with HCC 2998 is 21.3 µM (inactive); in the test on MOLT-4, 26.2 µM (inactive).
Turning to `C[C@]12CC[C@H](O)C[C@H]1CC[C@@H]1[C@@H]2CC[C@]2(C)[C@@H](C3=CC(=O)OC3)CC[C@]12O` [DIGITOXIGENIN], the GI50 in the test on BT-549 was 0.0372 µM (active); in the test on TK-10, 0.0944 µM (active); with SK-MEL-28, 0.569 µM (active); in the test on UACC-62, 0.36 µM (active); in the test on M14 it was 0.226 µM (active); in the test on HCT-116, 0.0251 µM (active). The GI50 is 0.713 µM (active) in the test on KM12; 0.299 µM (active) in the test with SNB-75; 0.0168 µM (active) in the test on NCI-H460; 0.851 µM (active) with SNB-19; 0.101 µM with HCT-15; 0.0144 µM (active) in the test with RXF 393. Moreover, the GI50 with T47D is 0.292 µM (active); in the test on 786-0, 0.0447 µM (active); in the test with A498, 0.125 µM (active); with NCI-H226, 1.27 µM (inactive); in the test on OVCAR-4, 0.0662 µM (active); in the test on UACC-257 it was 0.303 µM (active). Moreover, the GI50 in the test with HCC 2998 is 0.235 µM (active); in the test with MOLT-4, < 0.01 µM (active).
As for `c1csc(-c2cc(-c3cccs3)c(-c3cccs3)s2)c1`, the GI50 was > 100 µM (inactive) in the test with BT-549; > 100 µM (inactive) with TK-10; 57.4 µM (inactive) with SK-MEL-28; 54.2 µM (inactive) in the test on UACC-62; 47 µM (inactive) with M14; 40.9 µM (inactive) in the test with HCT-116. Besides, the GI50 in the test with KM12 was 46.5 µM (inactive); in the test with SNB-75, 21.2 µM (inactive); with NCI-H460, 47.2 µM (inactive); with SNB-19 it was > 100 µM (inactive); in the test with HCT-15 it was 49.8 µM; in the test on RXF 393, 61.5 µM (inactive). Besides, the GI50 was 4.69 µM (inactive) with T47D; > 100 µM (inactive) in the test on 786-0; > 100 µM (inactive) with A498; > 100 µM (inactive) in the test with NCI-H226; > 100 µM (inactive) in the test on OVCAR-4; 55.3 µM (inactive) in the test with UACC-257. Moreover, the GI50 in the test on HCC 2998 was 58.5 µM (inactive); in the test on MOLT-4, 36.1 µM (inactive).
In the case of `C[n+]1c(-c2ccc(/C=N/NC(=O)c3ccc(C(=O)N/N=C/c4ccc(-c5cn6ccccc6[n+]5C)cc4)cc3)cc2)cn2ccccc21`, the GI50 in the test on BT-549 is > 100 µM (inactive); with TK-10, > 83.4 µM (inactive); in the test with SK-MEL-28, > 100 µM (inactive); in the test with UACC-62, > 81.8 µM (inactive); in the test with M14, 98.6 µM (inactive); in the test with HCT-116 it was > 100 µM (inactive). In addition, the GI50 in the test on KM12 was > 100 µM (inactive); in the test on SNB-75, > 100 µM (inactive); in the test with NCI-H460 it was > 100 µM (inactive); in the test with SNB-19 it was > 100 µM (inactive); with HCT-15 it was above 100 µM; with RXF 393, > 61.9 µM (inactive). Further, the GI50 in the test with T47D is > 100 µM (inactive); with 786-0, 13.9 µM (inactive); with A498, 29.2 µM (inactive); in the test on NCI-H226, > 100 µM (inactive); in the test on OVCAR-4 it was > 100 µM (inactive); with UACC-257, > 63.7 µM (inactive). For the same compound, the GI50 in the test on HCC 2998 and in the test with MOLT-4 was > 100 µM (inactive) each time.
